# Values of other authors in patent publication US20180338945A1, “SKIN ADHESIVES, ANTIMICROBIAL COMPOSITIONS, ARTICLES, AND METHODS FOR THE USE THEREOF” (DERMALINK TECHNOLOGIES, INC., priority 2015, published 2018).
# What was measured:
# A. brasiliensis = conditions: pure LAE
# E. coli = conditions: pure LAE
smiles,measurement,setting,value
"CCCCCCCCCCCC(=O)N[C@@H](CCCNC(=N)N)C(=O)OCC [LAE, N^α-lauroyl-arginine ethyl ester]",minimum inhibitory concentration (MIC),A. brasiliensis,32 micrograms per mL
same,minimum inhibitory concentration (MIC),E. coli,16 micrograms per mL
